In patent US20120245137A1 (Zalicus Pharmaceuticals Ltd., priority 2009, published 2012):
Read-outs that look alike come from different tables or passages of the source.

Experiments:
Assay type in all cases: cell-based
Human Cav 2.2 channels = Human Cav 2.2 channels (Homo sapiens, UniProt Q00975); test: Fluorescent assay for CaV2.2 channels using potassium depolarization (VIPR/FLIPR); conditions: FLIPR data; for CAv2.2 IC50 Ratio closed/inact.: ratio closed/inactivated IC50
How it was run: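 HEK293 cells stably expressing human Cav2.2 with α2δ and β subunits plus Kir2.3 were loaded with fluo-4 and incubated 30 min at 25 °C with compound in 4, 12, 25 or 30 mM potassium buffer. Channels were opened with 70 mM potassium (final) and calcium influx was read by fluorescence (Ex 480/Em 535 nm).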

T-type calcium channel [1] = target: T-type calcium channel (Homo sapiens, UniProt O43497); test: T-type channel blocking, FLIPR data (Table 6); conditions: CAv3.1
From the text: (§1) Another method, high-throughput spectrophotometric assay, utilizes loading of the cell lines with a fluorescent dye sensitive to intracellular calcium concentration and subsequent examination of the effects of compounds on the ability of depolarization by potassium chloride or other means to alter intracellular calcium levels.

T-type calcium channel [2] = target: T-type calcium channel (Homo sapiens, UniProt O95180); test: T-type channel blocking, FLIPR data (Table 6); conditions: for CAv3.2 IC50 Ratio closed/inact.: CAv3.2, ratio closed/inactivated IC50
From the text: as §1

CAv1.2 = CAv1.2 (Homo sapiens, UniProt Q13936); test: FLIPR data, CAv1.2 channel blocking (Table 6); conditions: for CAv1.2 IC50 Ratio closed/inact.: ratio closed/inactivated IC50
[3] = closed state, read-out: CAv2.2 IC50 Closed
[4] = inactivated state, read-out: CAv2.2 IC50 Inact.
[5] = CAv3.2, closed state, read-out: CAv3.2 IC50 Closed
[6] = closed state, read-out: CAv1.2 IC50 Closed
[7] = inactivated state, read-out: CAv1.2 IC50 Inact.
[8] = CAv3.2, inactivated state, read-out: CAv3.2 IC50 Inact.

Chain of Human Cav 2.2 channels (Q00975 whole entry): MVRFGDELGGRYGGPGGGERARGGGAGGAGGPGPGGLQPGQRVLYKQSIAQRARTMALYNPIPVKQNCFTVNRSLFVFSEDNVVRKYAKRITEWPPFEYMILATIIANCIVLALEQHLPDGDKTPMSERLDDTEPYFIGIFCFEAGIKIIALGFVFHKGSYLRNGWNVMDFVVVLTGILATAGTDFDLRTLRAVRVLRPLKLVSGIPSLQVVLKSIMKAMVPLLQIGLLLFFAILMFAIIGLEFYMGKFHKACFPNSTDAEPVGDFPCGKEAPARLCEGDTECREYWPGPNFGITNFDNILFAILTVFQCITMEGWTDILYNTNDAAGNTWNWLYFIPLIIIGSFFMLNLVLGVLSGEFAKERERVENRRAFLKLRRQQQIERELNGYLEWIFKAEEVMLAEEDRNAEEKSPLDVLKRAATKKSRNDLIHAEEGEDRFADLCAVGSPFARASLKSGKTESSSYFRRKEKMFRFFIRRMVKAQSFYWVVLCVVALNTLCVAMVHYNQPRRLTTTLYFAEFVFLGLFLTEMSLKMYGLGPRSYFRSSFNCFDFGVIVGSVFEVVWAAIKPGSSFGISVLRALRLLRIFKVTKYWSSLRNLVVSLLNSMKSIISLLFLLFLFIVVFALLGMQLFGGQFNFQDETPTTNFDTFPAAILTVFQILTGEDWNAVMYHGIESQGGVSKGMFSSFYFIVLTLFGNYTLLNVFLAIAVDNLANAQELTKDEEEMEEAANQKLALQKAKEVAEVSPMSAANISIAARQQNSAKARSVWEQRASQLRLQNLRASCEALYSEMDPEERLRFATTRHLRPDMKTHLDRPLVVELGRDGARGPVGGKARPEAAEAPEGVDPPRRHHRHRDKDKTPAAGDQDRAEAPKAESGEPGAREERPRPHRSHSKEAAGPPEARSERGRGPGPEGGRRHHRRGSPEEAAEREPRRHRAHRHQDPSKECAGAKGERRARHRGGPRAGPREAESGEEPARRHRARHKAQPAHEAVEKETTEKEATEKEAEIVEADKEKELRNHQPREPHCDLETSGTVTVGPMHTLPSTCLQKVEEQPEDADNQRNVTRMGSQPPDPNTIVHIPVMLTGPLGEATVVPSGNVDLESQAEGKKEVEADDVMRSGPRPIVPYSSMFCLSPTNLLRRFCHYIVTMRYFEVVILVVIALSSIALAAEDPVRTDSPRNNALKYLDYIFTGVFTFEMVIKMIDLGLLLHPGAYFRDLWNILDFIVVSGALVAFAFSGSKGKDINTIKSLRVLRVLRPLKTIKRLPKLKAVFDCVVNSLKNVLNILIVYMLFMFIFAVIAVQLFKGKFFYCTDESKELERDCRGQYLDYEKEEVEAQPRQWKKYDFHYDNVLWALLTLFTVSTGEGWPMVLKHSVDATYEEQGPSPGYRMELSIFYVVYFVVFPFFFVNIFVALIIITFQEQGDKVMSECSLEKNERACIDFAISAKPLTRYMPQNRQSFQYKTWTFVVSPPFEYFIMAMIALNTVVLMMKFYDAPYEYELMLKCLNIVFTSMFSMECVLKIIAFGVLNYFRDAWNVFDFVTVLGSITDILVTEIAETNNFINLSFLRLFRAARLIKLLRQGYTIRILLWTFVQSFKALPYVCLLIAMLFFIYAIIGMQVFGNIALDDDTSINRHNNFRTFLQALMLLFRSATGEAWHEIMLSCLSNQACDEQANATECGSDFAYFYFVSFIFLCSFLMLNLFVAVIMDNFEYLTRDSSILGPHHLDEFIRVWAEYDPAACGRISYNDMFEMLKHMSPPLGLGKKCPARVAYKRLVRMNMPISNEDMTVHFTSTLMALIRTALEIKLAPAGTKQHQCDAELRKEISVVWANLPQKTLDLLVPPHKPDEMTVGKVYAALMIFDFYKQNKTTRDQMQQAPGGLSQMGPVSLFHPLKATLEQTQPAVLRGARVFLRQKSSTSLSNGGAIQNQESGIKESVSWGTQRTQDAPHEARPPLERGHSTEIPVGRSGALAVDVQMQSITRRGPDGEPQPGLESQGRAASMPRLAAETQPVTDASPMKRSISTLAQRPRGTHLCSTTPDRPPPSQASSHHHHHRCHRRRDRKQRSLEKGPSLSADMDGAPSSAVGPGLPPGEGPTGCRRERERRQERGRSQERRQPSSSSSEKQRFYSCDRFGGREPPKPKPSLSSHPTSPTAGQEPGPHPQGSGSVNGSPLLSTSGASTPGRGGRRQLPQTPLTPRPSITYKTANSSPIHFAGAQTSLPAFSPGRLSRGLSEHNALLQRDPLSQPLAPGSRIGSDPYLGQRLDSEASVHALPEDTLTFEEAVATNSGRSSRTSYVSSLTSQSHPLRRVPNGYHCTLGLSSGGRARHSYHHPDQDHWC
Chain of Human Cav 2.2 channels (P54289 25-1103 partner): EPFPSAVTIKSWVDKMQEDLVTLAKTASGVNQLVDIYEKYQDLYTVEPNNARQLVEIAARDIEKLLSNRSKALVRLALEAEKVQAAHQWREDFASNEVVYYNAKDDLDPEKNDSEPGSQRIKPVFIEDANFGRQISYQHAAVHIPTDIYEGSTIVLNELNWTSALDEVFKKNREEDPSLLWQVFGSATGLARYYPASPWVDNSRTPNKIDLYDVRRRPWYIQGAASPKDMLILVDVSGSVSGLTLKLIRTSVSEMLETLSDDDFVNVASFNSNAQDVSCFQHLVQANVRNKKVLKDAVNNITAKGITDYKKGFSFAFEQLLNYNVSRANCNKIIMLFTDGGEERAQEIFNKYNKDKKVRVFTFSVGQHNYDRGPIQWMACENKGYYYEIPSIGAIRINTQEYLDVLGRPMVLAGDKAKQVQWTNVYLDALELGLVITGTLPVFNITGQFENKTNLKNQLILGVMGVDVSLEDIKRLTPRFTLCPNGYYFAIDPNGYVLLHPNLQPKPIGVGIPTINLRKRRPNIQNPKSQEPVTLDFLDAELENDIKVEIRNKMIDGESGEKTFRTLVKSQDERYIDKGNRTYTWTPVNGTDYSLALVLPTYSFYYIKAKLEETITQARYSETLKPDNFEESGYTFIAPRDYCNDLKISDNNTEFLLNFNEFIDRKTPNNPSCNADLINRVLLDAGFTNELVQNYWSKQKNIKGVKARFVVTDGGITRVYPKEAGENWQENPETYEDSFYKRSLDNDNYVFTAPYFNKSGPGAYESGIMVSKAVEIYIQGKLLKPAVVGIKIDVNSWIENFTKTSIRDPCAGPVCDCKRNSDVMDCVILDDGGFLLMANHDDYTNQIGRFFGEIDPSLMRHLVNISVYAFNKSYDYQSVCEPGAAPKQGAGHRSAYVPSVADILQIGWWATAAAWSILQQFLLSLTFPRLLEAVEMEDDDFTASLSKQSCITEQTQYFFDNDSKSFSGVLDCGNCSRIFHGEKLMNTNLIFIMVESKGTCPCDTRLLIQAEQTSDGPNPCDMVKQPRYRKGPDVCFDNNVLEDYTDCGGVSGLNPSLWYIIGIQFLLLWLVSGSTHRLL
Chain of Human Cav 2.2 channels (P54284 whole entry partner): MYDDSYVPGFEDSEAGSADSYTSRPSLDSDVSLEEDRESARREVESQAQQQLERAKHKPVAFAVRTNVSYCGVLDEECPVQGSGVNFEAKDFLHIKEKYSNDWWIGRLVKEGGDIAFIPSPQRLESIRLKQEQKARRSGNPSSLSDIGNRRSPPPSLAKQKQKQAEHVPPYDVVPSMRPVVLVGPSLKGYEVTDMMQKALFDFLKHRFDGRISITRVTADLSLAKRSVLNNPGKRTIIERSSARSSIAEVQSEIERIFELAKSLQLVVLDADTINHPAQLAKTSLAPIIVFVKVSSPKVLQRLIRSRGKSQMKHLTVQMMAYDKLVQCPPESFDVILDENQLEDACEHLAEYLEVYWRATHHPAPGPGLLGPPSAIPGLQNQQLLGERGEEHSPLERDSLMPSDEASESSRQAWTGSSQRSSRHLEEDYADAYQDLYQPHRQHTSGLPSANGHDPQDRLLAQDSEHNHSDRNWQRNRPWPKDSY

Compound | IC50 (Human Cav 2.2 channels; [3]) | IC50 (Human Cav 2.2 channels; [4]) | CAv2.2 IC50 Ratio closed/inact. (Human Cav 2.2 channels) | IC50 (T-type calcium channel [1]) | IC50 (T-type calcium channel [2]; [5]) | IC50 (T-type calcium channel [2]; [8]) | CAv3.2 IC50 Ratio closed/inact. (T-type calcium channel [2]) | IC50 (CAv1.2; [6]) | IC50 (CAv1.2; [7]) | CAv1.2 IC50 Ratio closed/inact. (CAv1.2)
CC(C)S(=O)(=O)c1cc(C(F)(F)F)cnc1C(=O)NC[C@H]1C[C@@H](C(C)(C)S(=O)(=O)c2cccc(C(F)(F)F)c2)C1 [Compound 681] | 9.89 µM | 0.16 µM | 61.8 | 4.82 µM | 5.93 µM |  |  | ≥ 10 µM | 2.62 µM | 3.8
CC(C)([C@H]1C[C@H](NS(=O)(=O)c2ccc(C(F)(F)F)nc2)C1)S(=O)(=O)c1cccc(C(F)(F)F)c1 [Compound 668] | 7.34 µM | 0.79 µM | 9.3 | 2.95 µM | 3.83 µM | 2.92 µM | 1.3 | ≥ 10 µM | 3.73 µM | 2.7
CC(C)([C@H]1C[C@@H](NS(=O)(=O)c2ccc(Cl)c(F)c2)C1)S(=O)(=O)c1cc(F)cc(C(F)(F)F)c1 [Compound 600] | 5.25 µM | 0.82 µM | 6.4 | 3.57 µM | ≥ 10 µM | 5.08 µM | 2 | 6.93 µM | 2.22 µM | 3.1
CC(C)([C@H]1C[C@@H](NS(=O)(=O)c2ccc(F)c(Cl)c2)C1)S(=O)(=O)c1cccc(C(F)(F)F)c1 [Compound 625] | 10 µM | 1.09 µM | 9.2 | 3.74 µM | 3.71 µM | 3.1 µM | 1.2 | ≥ 10 µM | 6.39 µM | 1.6
CC(C)([C@H]1C[C@@H](CNC(=O)c2ncc(C(F)(F)F)cc2S(C)(=O)=O)C1)S(=O)(=O)c1cccc(C(F)(F)F)c1 [Compound 690] | 10 µM | 0.45 µM | 22.2 | ≥ 10 µM | ≥ 10 µM |  |  | ≥ 10 µM | ≥ 10 µM | 
CC(C)([C@H]1C[C@H](NC(=O)c2ncc(C(F)(F)F)cc2S(C)(=O)=O)C1)S(=O)(=O)c1cccc(OC(F)(F)F)c1 [Compound 637] | 10 µM | 0.58 µM | 17.2 | ≥ 10 µM | ≥ 10 µM | 10 µM | 1 |  | ≥ 10 µM | 
CC(C)([C@H]1C[C@H](Nc2ccnc(C(F)(F)F)n2)C1)S(=O)(=O)c1cc(F)cc(C(F)(F)F)c1 [Compound 649] | 4.83 µM | 1.19 µM | 4.1 | 3.13 µM | 2.4 µM | 2.74 µM | 0.9 | 6.39 µM | 1.81 µM | 3.5
CC(C)([C@H]1C[C@@H](NS(=O)(=O)c2ccc(C(F)(F)F)cc2)C1)S(=O)(=O)c1cccc(C(F)(F)F)c1 [Compound 624] | 10 µM | 0.8 µM | 12.5 | 2.96 µM | 2.96 µM | 2.26 µM | 1.3 | ≥ 10 µM | 5.54 µM | 1.8
CC(C)([C@H]1C[C@@H](NS(=O)(=O)c2ccc(F)c(Cl)c2)C1)S(=O)(=O)c1cc(F)cc(C(F)(F)F)c1 [Compound 599] | 6.14 µM | 1.03 µM | 6 | 5.59 µM | ≥ 10 µM | 4.4 µM | 2.3 | 8.85 µM | 3.05 µM | 2.9
CC(C)([C@H]1C[C@@H](NS(=O)(=O)c2ccc(C(F)(F)F)cc2Cl)C1)S(=O)(=O)c1cccc(C(F)(F)F)c1 [Compound 627] | 10 µM | 0.88 µM | 11.4 | 2.38 µM | 2.2 µM | 1.33 µM | 1.7 | ≥ 10 µM | 5.86 µM | 1.7
CC(C)S(=O)(=O)c1cc(C(F)(F)F)cnc1C(=O)N[C@H]1C[C@H](C(C)(C)S(=O)(=O)c2cccc(OC(F)(F)F)c2)C1 [Compound 638] | 6.79 µM | 0.21 µM | 32.3 | 4.24 µM | 5.49 µM | 6.38 µM | 0.9 | ≥ 10 µM | 6.11 µM | 1.6
CC(C)([C@H]1C[C@@H](NS(=O)(=O)c2ccc(C(F)(F)F)nc2)C1)S(=O)(=O)c1cc(F)cc(C(F)(F)F)c1 [Compound 602] | 6.08 µM | 0.75 µM | 8.1 | 6.36 µM | ≥ 10 µM | 5.38 µM | 1.9 | 9.77 µM | 3.94 µM | 2.5

The next compounds have a lower IC50 (Human Cav 2.2 channels; [3]) than those just listed; values first:

IC50 (Human Cav 2.2 channels; [3]) | IC50 (Human Cav 2.2 channels; [4]) | CAv2.2 IC50 Ratio closed/inact. (Human Cav 2.2 channels) | IC50 (T-type calcium channel [1]) | IC50 (T-type calcium channel [2]; [5]) | IC50 (T-type calcium channel [2]; [8]) | CAv3.2 IC50 Ratio closed/inact. (T-type calcium channel [2]) | Compound | IC50 (CAv1.2; [6]) | IC50 (CAv1.2; [7]) | CAv1.2 IC50 Ratio closed/inact. (CAv1.2)
4.17 µM | 1.17 µM | 3.6 | 9.91 µM | ≥ 10 µM | 2.54 µM | 3.9 | CC(C)([C@H]1C[C@H](NS(=O)(=O)c2ccc(C(F)(F)F)nc2)C1)S(=O)(=O)c1cc(F)cc(C(F)(F)F)c1 [Compound 609] | 9.99 µM | 4.32 µM | 2.3
4.23 µM | 1.03 µM | 4.1 | 4.59 µM | 5.27 µM | 3.9 µM | 1.4 | CC(C)([C@H]1C[C@@H](Nc2ccnc(C(F)(F)F)n2)C1)S(=O)(=O)c1cccc(OC(F)(F)F)c1 [Compound 646] | 8 µM | 2.33 µM | 3.4
4.03 µM | 1.1 µM | 3.7 | 4.92 µM | ≥ 10 µM | 2.58 µM | 3.9 | CC(C)([C@H]1C[C@H](NS(=O)(=O)c2ccc(F)c(C(F)(F)F)c2)C1)S(=O)(=O)c1cc(F)cc(C(F)(F)F)c1 [Compound 608] | 7.75 µM | 2.45 µM | 3.2
2.21 µM | 0.22 µM | 10 | 1.55 µM | 0.7 µM | 0.81 µM | 0.9 | CC(C)([C@H]1C[C@H](NC(=O)c2ccc(F)c(Cl)c2)C1)S(=O)(=O)c1cccc(OC(F)(F)F)c1 [Compound 634] | 5.92 µM | 0.6 µM | 9.9
0.92 µM | 0.06 µM | 15.3 | 3.81 µM | 0.57 µM | 0.76 µM | 0.8 | CC(C)(C[C@H]1C[C@@H](NC(=O)c2ccc(C(F)(F)F)cc2)C1)S(=O)(=O)c1cccc(C(F)(F)F)c1 [Compound 732] | 2.89 µM | 0.62 µM | 4.7
